Each structure is given as a SMILES string. A value given as a limit tells only on which side of the number the result lay.

The source of these data is paper PMC11726677, “Eradication of Therapy-Resistant Cancer Stem Cells by Novel Telmisartan Derivatives” (Journal of Medicinal Chemistry, 2024).

The test system of series [1] is STAT5. The experiment in a line: Jess Simple Western immunoassay of STAT5/pSTAT5 in K562-R cells. The series is classed as cell-based, human. The method, then:
In the next step, the effects of the compounds (4 μM) on STAT5 in K562-R cells were examined.
(§1) Protein extracts were prepared as previously described.[44] Protein expression was determined using the capillary-based Jess Simple Western detection system (ProteinSimple, BioTechne) according to the manufacturer’s instructions at default settings. […] Horseradish peroxidase (HRP)-conjugated secondary antirabbit antibody, which was included in the Jess Detection Module kit, was used. Data analysis was conducted using Compass for Simple Western 4.0 software (ProteinSimple, BioTechne).

Series [2] concerns K562-R cells. The experiment in a line: Metabolic activity of K562-R cells, compounds alone (modified MTT assay). It is filed as cell-based, human. Particulars: 72 h; for metabolic activity of K562-R cells, compound alone: 10 μM, without imatinib, vehicle control = 100%; for viability at 10 µM: Homo sapiens, K-562R, read-out: metabolic activity of K562-R cells, compound alone. How it is done:
(§2) The potential reduction in cell viability was determined using the modified MTT assay.
First, the compounds (10 μM) were applied alone to evaluate their effects per se.
(§3) COS-7 (2 × 10^3 cells per well), IGROV-1 SP (2.5 × 10^3 cells per well), A2780 V SP (1.5 × 10^3 cells per well), PC3-DR (4 × 10^3 cells per well), and DU145-DR (3 × 10^3 cells per well) cells were seeded in 96-well plates in triplicates and after 24 h, the compounds were added at the respective concentrations. K562-R and K562 cells (2 × 10^4 cells per well), were treated with the compounds 2 h after seeding. […] A modified MTT colorimetric assay (EZ4U kit, Biomedica) was used to determine the metabolic activity of the tested cells, according to the manufacturer’s instructions. Absorbance was measured and the optical density of the respective FCS-containing medium and of the substrate was subtracted to exclude nonspecific staining. Metabolic activity in the absence of the compounds (CTR, DMSO) was set to 100% as reference.
In general terms: Formazan colour is commonly taken as a measure of viable cells.

For series [3], the system named is ABCB1. The experiment in a line: Jess Simple Western immunoassay of ABCB1 expression in K562-R cells. The following applies: 4 μM, 72 h. It is filed as cell-based, human. The method, then:
as §1

The subject of series [4] is K562 cells. In words: Metabolic activity of TKI-sensitive K562 cells (MTT assay). Particulars: 10 μM, 72 h, alone. The series is classed as cell-based, human. How it is done:
Selectivity for therapy-resistant K562-R cells can be assessed by comparing the results with TKI-sensitive K562 cells.
as §3

Series [5] concerns K562-R cells. The experiment in a line: Chemosensitizing: metabolic activity of K562-R cells cotreated with imatinib (modified MTT assay). Particulars: 72 h; for chemosensitizing effect, concentration-dependent analysis / EC50: K562-R, + imatinib 1 μM; for chemosensitizing effect, concentration-dependent analysis: 0.5–8 μM (transporter inhibitors 10 to 0.5 μM); for EC50: read-out: SC50 (drug concentration eliciting 50% of the maximum sensitizing effect). It is filed as cell-based, human. How it is done: as §2
conc. 10 to 0.5 μM) over 72 h (Figure 3D).
as §3

Series [6] addresses ABCB1 transporter in K562-R cells (Homo sapiens, UniProt P08183). In words: Side population (SP) analysis, DCV staining, flow cytometry. The following applies: 10 μM.
Protocol: SP analyses were performed as previously described[45] on a LSRFortessa flow cytometer (BD Biosciences, Vienna, Austria). Briefly, 1 × 10^6 cells/mL were stained with 10 μM Vybrant DyeCycleTM Violet (DCV; Molecular Probes, Eugene, OR) in the presence or absence of the investigated compounds for 90 min at 37 °C. […] Subsequently, the cells were washed and immediately analyzed using flow cytometry. The FlowJo 9.6 software was used for data analyses (Tree Star Software, Ashland, CA).
For series [7], the system named is DU145-DR cells. The experiment in a line: Chemosensitizing to docetaxel: metabolic activity of DU145-DR cells (MTT). Particulars: DTX 12.5 nM, 72 h, compared to solvent control. The series is classed as cell-based, human. How it is done: (§4) The chemosensitizing efficacy was investigated in the ovarian and prostate cancer cell lines using the above-described metabolic activity assay. Paclitaxel (PTX) served as a reference (CTR) in A2780 V SP and IGROV-1 SP cells and docetaxel (DTX) in PC3-DR and D145-DR cells.
as §3

Series [8] deals with PC3-DR cells. The experiment in a line: Chemosensitizing to docetaxel: metabolic activity of PC3-DR cells (MTT). The series is classed as cell-based, human. Particulars: DTX 12.5 nM, 72 h, compared to solvent control. How it is done:
as §4, §3

Series [9] deals with ABCB1. The arrangement: method as in Weiss et al. 38. The following applies: ref Weiss et al. 38; cited from earlier work.
Series [10] deals with A2780 V SP cells. The experiment in a line: Chemosensitizing to paclitaxel: metabolic activity of A2780 V SP cells (MTT). The series is classed as cell-based, human. How it is done:
as §4, §3

Series [11] has as its system IGROV-1 SP cells. In words: Chemosensitizing to paclitaxel: metabolic activity of IGROV-1 SP cells (MTT). It is filed as cell-based, human. Particulars: PTX 10 nM, 72 h, compared to solvent control. The method, then: as §4, §3

ABCB1 transporter in K562-R cells, sequence (P08183 whole entry): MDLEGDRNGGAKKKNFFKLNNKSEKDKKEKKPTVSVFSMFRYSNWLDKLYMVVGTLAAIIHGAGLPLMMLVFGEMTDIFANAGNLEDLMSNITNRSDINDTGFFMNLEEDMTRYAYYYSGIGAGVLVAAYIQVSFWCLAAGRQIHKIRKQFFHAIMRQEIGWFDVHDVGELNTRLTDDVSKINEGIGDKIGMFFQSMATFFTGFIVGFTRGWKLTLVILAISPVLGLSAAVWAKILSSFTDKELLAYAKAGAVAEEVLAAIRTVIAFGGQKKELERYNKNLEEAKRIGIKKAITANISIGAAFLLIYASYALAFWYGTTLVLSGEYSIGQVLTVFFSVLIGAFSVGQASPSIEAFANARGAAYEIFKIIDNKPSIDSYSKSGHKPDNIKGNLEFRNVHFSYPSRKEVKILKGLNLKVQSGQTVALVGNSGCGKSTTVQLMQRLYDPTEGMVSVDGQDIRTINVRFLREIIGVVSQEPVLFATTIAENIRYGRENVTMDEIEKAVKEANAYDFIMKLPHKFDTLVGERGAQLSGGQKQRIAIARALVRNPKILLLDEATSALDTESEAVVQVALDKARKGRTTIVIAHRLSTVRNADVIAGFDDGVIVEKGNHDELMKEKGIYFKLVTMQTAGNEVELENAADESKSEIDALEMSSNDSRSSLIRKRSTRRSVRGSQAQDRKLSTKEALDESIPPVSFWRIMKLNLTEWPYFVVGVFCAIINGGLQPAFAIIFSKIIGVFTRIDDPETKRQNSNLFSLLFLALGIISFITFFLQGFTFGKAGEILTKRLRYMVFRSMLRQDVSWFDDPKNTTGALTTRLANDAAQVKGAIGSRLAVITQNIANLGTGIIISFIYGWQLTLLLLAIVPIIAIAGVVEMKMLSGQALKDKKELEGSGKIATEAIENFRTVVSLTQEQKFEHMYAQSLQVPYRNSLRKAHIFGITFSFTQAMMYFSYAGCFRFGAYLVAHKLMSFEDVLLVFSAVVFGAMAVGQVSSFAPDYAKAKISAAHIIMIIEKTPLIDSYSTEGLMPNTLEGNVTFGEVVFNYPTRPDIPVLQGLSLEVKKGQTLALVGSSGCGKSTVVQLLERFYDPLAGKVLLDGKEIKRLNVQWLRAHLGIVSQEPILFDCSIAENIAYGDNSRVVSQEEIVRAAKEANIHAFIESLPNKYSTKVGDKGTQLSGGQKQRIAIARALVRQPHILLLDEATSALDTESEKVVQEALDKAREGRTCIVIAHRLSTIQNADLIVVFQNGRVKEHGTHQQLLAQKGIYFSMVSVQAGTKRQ

As for `COc1cc2c(cc1OC)CN(CCc1ccc(NC(=O)c3cccc4c(=O)c5cccc(OC)c5[nH]c34)cc1)CC2` [elacridar, reference compound], the “phosphorylation of STAT5” value was “hardly triggered any change in the expression of pSTAT5” in [1] (4 μM + imatinib 1 μM, 6 h) and “did not influence the phosphorylation of STAT5” in series [1] (4 μM alone, 72 h). The “metabolic activity of K562-R cells, compound alone” value in series [2] is listed as “did not affect the viability”. Further, the ABCB1 protein expression entry in [3] was “none of the compounds abrogated the ABCB1 protein expression”. In addition, the “metabolic activity of K562 cells” value in [4] is “did not affect the viability”. The “chemosensitizing effect, concentration-dependent analysis” value in series [5] was “comparable to telmi-ester (7b)”.
For the compound `C/C=C/C[C@@H](C)C(=O)[C@H]1C(=O)N[C@@H](C(C)C)C(=O)N(C)CC(=O)N(C)[C@@H](CC(C)C)C(=O)N[C@@H](C(C)C)C(=O)N(C)[C@@H](CC(C)C)C(=O)N[C@@H](C)C(=O)N[C@H](C)C(=O)N(C)[C@@H](CC(C)C)C(=O)N(C)[C@@H](CC(C)C)C(=O)N(C)[C@@H](C(C)C)C(=O)N1C` [valspodar, reference compound], the “metabolic activity of K562-R cells, compound alone” value in [2] was “did not affect the viability”. In series [4], the “metabolic activity of K562 cells” value was “did not affect the viability”. Moreover, in series [5], the “chemosensitizing effect, concentration-dependent analysis” value is given as “sensitized the cells similarly to the derivatives 4b, 5c, 6b, 6c”.
`CCCc1nc2ccccc2n1Cc1cccc(C(N)=O)c1` [2c, 3-((2-Propyl-1H-benzo[d]imidazole-1-yl)methyl)benzamide]: the “metabolic activity of K562-R cells, combination with imatinib” value (“metabolic activity … with imatinib” below) in [5] (compound 10 μM + imatinib 1 μM) is on record as “could not be increased”.
On to `CCCc1nc2ccccc2n1Cc1cccc(C(=O)OC)c1` [2b, Methyl 3-((2-propyl-1H-benzo[d]imidazole-1-yl)methyl)benzoate], for which, in [6], the “effect on SP phenotype / ABCB1 activity” value is “had no significant impact on the SP”. For the same compound, the viability at 10 µM in series [2] was under 70%. The “metabolic activity … with imatinib” value in series [5] (compound 8 μM + imatinib 1 μM) is given as 44–57%; in series [5] (compound 10 μM + imatinib 1 μM), 34–58%.
Take `CCCc1nc2ccccc2n1Cc1ccc(C(N)=O)cc1` [3c, 4-((2-Propyl-1H-benzo[d]imidazole-1-yl)methyl)benzamide]: the “metabolic activity … with imatinib” value in [5] (compound 10 μM + imatinib 1 μM) is “could not be increased”.
On to `CC(=O)O[C@@]12CO[C@@H]1C[C@H](O)[C@@]1(C)C(=O)[C@H](O)C3=C(C)[C@@H](OC(=O)[C@H](O)[C@@H](NC(=O)OC(C)(C)C)c4ccccc4)C[C@@](O)([C@@H](OC(=O)c4ccccc4)[C@H]21)C3(C)C` [DTX, docetaxel, reference compound], for which the “metabolic activity of treated cells, DTX alone” value in series [7] and in [8] was over 80% throughout.
Turning to `CCCc1nc2ccccc2n1Cc1ccc(-c2ccc(C(=O)OC)cc2)cc1` [6b, Methyl 4′-((2-propyl-1H-benzo[d]imidazole-1-yl)methyl)-[1,1′-biphenyl]-4-carboxylate], in series [6], the “effect on SP phenotype / ABCB1 activity” value is “efficiently reduced the ABCB1 activity”; the “relation of SP and NSP” value is “about 50%”. In series [1] (4 μM + imatinib 1 μM, 6 h), the “phosphorylation of STAT5” value is on record as “marked repression of the STAT5 phosphorylation”. Besides, the viability at 10 µM in series [2] was 75 to 80%. The ABCB1 protein expression entry in series [3] is recorded as “none of the compounds abrogated the ABCB1 protein expression”. In addition, the “metabolic activity of K562 cells” value in series [4] is listed as at least 65%. Moreover, the EC50 in [5] is 1180 nM. In addition, the “metabolic activity … with imatinib” value in series [5] (compound 10 μM + imatinib 1 μM) is given as 8–24%.
In the case of `CCCc1nc2ccccc2n1Cc1ccc(-c2ccccc2C(=O)OC)cc1` [4b, Methyl 4′-((2-propyl-1H-benzo[d]imidazole-1-yl)methyl)-[1,1′-biphenyl]-2-carboxylate], in series [6], the “effect on SP phenotype / ABCB1 activity” value is recorded as “efficiently reduced the ABCB1 activity”; the “relation of SP and NSP” value is “about 50%”. In addition, the “phosphorylation of STAT5” value in series [1] (4 μM + imatinib 1 μM, 6 h) is given as “hardly triggered any change in the expression of pSTAT5”. In addition, the “phosphorylation of STAT5” value in series [1] (4 μM alone, 72 h) was “prevented the activation of STAT5”. The viability at 10 µM in series [2] was under 70%. For the same compound, the ABCB1 protein expression result in series [3] was “none of the compounds abrogated the ABCB1 protein expression”. Also, in series [4], the “metabolic activity of K562 cells” value is at least 65%. Besides, the EC50 in series [5] turned out to be 1240 nM. The “metabolic activity … with imatinib” value in series [5] (compound 10 μM + imatinib 1 μM) was 8–24%.
With `CCCc1nc2ccccc2n1Cc1ccc(C(=O)OC)cc1` [3b, Methyl 4-((2-propyl-1H-benzo[d]imidazole-1-yl)methyl)benzoate], the “effect on SP phenotype / ABCB1 activity” value in series [6] is “had no significant impact on the SP”. In addition, the “metabolic activity … with imatinib” value in series [5] (compound 8 μM + imatinib 1 μM) is 44–57%; in series [5] (compound 10 μM + imatinib 1 μM) it was 34–58%.
On to `CCCCC1=NC2(CCCC2)C(=O)N1Cc1ccc(-c2ccccc2-c2nnn[nH]2)cc1` [irbesartan], for which the “inhibition of ABCB1” value in series [9] is “only slightly”.
In the case of `CC(=O)O[C@H]1C(=O)[C@@]2(C)[C@H]([C@H](OC(=O)c3ccccc3)[C@]3(O)C[C@H](OC(=O)[C@H](O)[C@@H](NC(=O)c4ccccc4)c4ccccc4)C(C)=C1C3(C)C)[C@]1(OC(C)=O)CO[C@@H]1C[C@@H]2O` [PTX, paclitaxel], the IC50 (in general, the concentration that inhibits the measured activity by half) in [10] (Homo sapiens, PTX 0–300 nM, read-out: IC50 (PTX), PTX alone) was 168 nM. The “metabolic activity of treated cells, PTX alone” value in [10] (PTX 10 nM, 72 h, compared to solvent control) is over 80%; in [11], over 80%.
As to `CCCc1nc2ccccc2n1Cc1ccc(-c2cccc(C(=O)OC)c2)cc1` [5b, Methyl 4′-((2-propyl-1H-benzo[d]imidazole-1-yl)methyl)-[1,1′-biphenyl]-3-carboxylate], the viability at 10 µM in series [2] was under 70%. Further, the “metabolic activity of K562 cells” value in series [4] was at least 65%. For the same compound, the “metabolic activity … with imatinib” value in series [5] (compound 10 μM + imatinib 1 μM) is 34–58%.
Consider `CCCc1nc2ccccc2n1Cc1ccccc1C(N)=O` [1c, 2-((2-Propyl-1H-benzo[d]imidazole-1-yl)methyl)benzamide], for which the viability at 10 µM in series [2] was 75 to 80%. Moreover, the “metabolic activity … with imatinib” value in [5] (compound 10 μM + imatinib 1 μM) is reported as “could not be increased”.
In the case of `CCCc1nc2ccccc2n1Cc1ccccc1C(=O)OC` [1b, Methyl 2-((2-propyl-1H-benzo[d]imidazole-1-yl)methyl)benzoate], in [6], the “effect on SP phenotype / ABCB1 activity” value is reported as “had no significant impact on the SP”. The “phosphorylation of STAT5” value in series [1] (4 μM + imatinib 1 μM, 6 h) is “hardly triggered any change in the expression of pSTAT5”; in [1] (4 μM alone, 72 h), “prevented the activation of STAT5”. Besides, the viability at 10 µM in [2] was under 70%. Besides, in series [3], the ABCB1 protein expression result is “none of the compounds abrogated the ABCB1 protein expression”. Further, the “metabolic activity … with imatinib” value is given as 44–57% in series [5] (compound 8 μM + imatinib 1 μM) and 34–58% in series [5] (compound 10 μM + imatinib 1 μM).
